Measured values: US20100298141A1, “SUBSTITUTED PYRIDINE N-OXIDE HERBICIDES” (E. I. DU PONT DE NEMOURS AND COMPANY, priority 2007, published 2010)

How the values were obtained:
Test in all cases: Test F preemergence test
[1] = system: annual bluegrass; assay type: in vivo, Poa annua; settings: scale 0 to 100
From the text: (§1) Seeds of plant species selected from bermudagrass (Cynodon dactylon), Surinam grass (Brachiaria decumbens), large crabgrass (Digitaria sanguinalis), green foxtail (Setaria viridis), goosegrass (Eleusine indica), johnsongrass (Sorghum halepense), kochia (Kochia scoparia), pitted morningglory (Ipomoea lacunosa), purple nutsedge (Cyperus rotundus), common ragweed (Ambrosia elation), mustard (Brassica nigra), guineagrass (Panicum maximum), […] (Paspalum dilatatum), barnyardgrass (Echinochloa crus-galli), southern sandbur (Cenchrus echinatus), common sowthistle (Sonchus oleraceous), prickly […] spinosa), Italian ryegrass (Lolium multiflorum), common purslane (Portulaca oleracea), broadleaf signalgrass (Brachiaria platyphylla), common groundsel (Senecio vulgaris), common chickweed (Stellaria media), Virginia dayflower (Commelina virginica), annual bluegrass (Poa annua), naked crabgrass (Digitaria nuda), […] cochinchinensis), quackgrass (Elytrigia repens), Canada horseweed (Conyza canadensis), field bindweed (Convolvulus arvensis), […] (Bidens bipinnata), common mallow (Malva sylvestris), Russian thistle (Salsola kali), and sugarcane (Saccharum officinarum) were planted and treated preemergence with test chemicals formulated in a non-phytotoxic solvent mixture which included a surfactant. At a different time, sugarcane was treated with postemergence applications of some of the test chemicals formulated in the same manner. Plants were approximately 3- to 4-leaf stage for the postemergence treatments. Treated plants and controls were maintained in a greenhouse for 14 to 21 days, after which time all species were compared to controls and visually evaluated. […] A dash (-) response means no test result.

[2] = system: purple nutsedge; assay type: in vivo, Cyperus rotundus; settings: scale 0 to 100
From the text: as §1

[3] = system: goosegrass; assay type: in vivo, Eleusine indica; settings: scale 0 to 100
From the text: as §1

[4] = system: field bindweed; assay type: in vivo, Convolvulus arvensis; settings: scale 0 to 100
From the text: as §1

[5] = system: naked crabgrass; assay type: in vivo, Digitaria nuda; settings: scale 0 to 100
From the text: as §1

[6] = system: Italian ryegrass; assay type: in vivo, Lolium multiflorum; settings: scale 0 to 100
From the text: as §1

[7] = system: common purslane; assay type: in vivo, Portulaca oleracea; settings: scale 0 to 100
From the text: as §1

[8] = system: itchgrass; assay type: in vivo, Rottboellia cochinchinensis; settings: scale 0 to 100
From the text: as §1

[9] = system: barnyardgrass; assay type: in vivo, Echinochloa crus-galli
From the text: as §1

[10] = system: large crabgrass; assay type: in vivo, Digitaria sanguinalis; settings: scale 0 to 100
From the text: as §1

[11] = system: green foxtail; assay type: in vivo, Setaria viridis; settings: scale 0 to 100
From the text: as §1

[12] = system: common groundsel; assay type: in vivo, Senecio vulgaris; settings: scale 0 to 100
From the text: as §1

[13] = system: southern sandbur; assay type: in vivo, Cenchrus echinatus; settings: scale 0 to 100
From the text: as §1

[14] = system: johnsongrass; assay type: in vivo, Sorghum halepense; settings: scale 0 to 100
From the text: as §1

[15] = system: common ragweed; assay type: in vivo, Ambrosia elation; settings: scale 0 to 100
From the text: as §1

## Cn1nc(OC(F)F)c(CS(=O)(=O)c2cccc[n+]2[O-])c1C(F)(F)F [Compound 80]
[1]; 16 g ai/ha, preemergence
  Plant response rating, Bluegrass: 25
[1]; 62 g ai/ha, Preemergence
  Bluegrass plant response rating: 90
[1]; 125 g ai/ha, preemergence
  Bluegrass plant response rating: 95
[1]; Preemergence, 31 g ai/ha
  Plant response rating, Bluegrass: 25
[2]; 16 g ai/ha, preemergence
  Plant response rating, Purple Nutsedge: 0
[2]; 62 g ai/ha, Preemergence
  Purple Nutsedge plant response rating: 50
[2]; 125 g ai/ha, preemergence
  Purple Nutsedge plant response rating: 80
[3]; 16 g ai/ha, preemergence
  Plant response rating, Goosegrass: 80
[3]; 62 g ai/ha, Preemergence
  Goosegrass plant response rating: 95
[3]; 125 g ai/ha, preemergence
  Goosegrass plant response rating: 100
[3]; Preemergence, 31 g ai/ha
  Plant response rating, Goosegrass: 85
[4]; 16 g ai/ha, preemergence
  Plant response rating, Field Bindweed: 0
[4]; 62 g ai/ha, Preemergence
  Field Bindweed plant response rating: 0
[4]; 125 g ai/ha, preemergence
  Field Bindweed plant response rating: 0
[4]; Preemergence, 31 g ai/ha
  Plant response rating, Field Bindweed: 0
[5]; 16 g ai/ha, preemergence
  Plant response rating, Crabgrass, Naked: 0
[5]; 62 g ai/ha, Preemergence
  Crabgrass, Naked plant response rating: 90
[5]; 125 g ai/ha, preemergence
  Crabgrass, Naked plant response rating: 100
[5]; Preemergence, 31 g ai/ha
  Plant response rating, Crabgrass, Naked: 75
[6]; 16 g ai/ha, preemergence
  Plant response rating, Ryegrass, Italian: 15
[6]; 125 g ai/ha, preemergence
  Ryegrass, Italian plant response rating: 65
[6]; Preemergence, 62 g ai/ha
  Plant response rating, Ryegrass, Italian: 65
[6]; Preemergence, 31 g ai/ha
  Plant response rating, Ryegrass, Italian: 20
[7]; 16 g ai/ha, preemergence
  Plant response rating, Purslane: 0
[7]; 62 g ai/ha, Preemergence
  Purslane plant response rating: 0
[7]; 125 g ai/ha, preemergence
  Purslane plant response rating: 0
[7]; Preemergence, 31 g ai/ha
  Plant response rating, Purslane: 0
[8]; 16 g ai/ha, preemergence
  Plant response rating, Itchgrass: 10
[8]; 62 g ai/ha, Preemergence
  Itchgrass plant response rating: 60
[8]; 125 g ai/ha, preemergence
  Itchgrass plant response rating: 90
[8]; Preemergence, 31 g ai/ha
  Plant response rating, Itchgrass: 20
[9]; 16 g ai/ha, preemergence, scale 0 to 100 (0 no effect, 100 complete control)
  Plant response rating, Barnyardgrass: 85
[9]; 62 g ai/ha, Preemergence, scale 0 to 100
  Barnyardgrass plant response rating: 95
[9]; 125 g ai/ha, preemergence, scale 0 to 100
  Barnyardgrass plant response rating: 100
[9]; Preemergence, 31 g ai/ha, scale 0 to 100
  Plant response rating, Barnyardgrass: 90
[10]; 16 g ai/ha, preemergence
  Plant response rating, Crabgrass, Large: 40
[10]; 62 g ai/ha, Preemergence
  Crabgrass, Large plant response rating: 80
[10]; 125 g ai/ha, preemergence
  Crabgrass, Large plant response rating: 90
[10]; Preemergence, 31 g ai/ha
  Plant response rating, Crabgrass, Large: 80
[11]; 16 g ai/ha, preemergence
  Plant response rating, Foxtail, Green: 30
[11]; 62 g ai/ha, Preemergence
  Foxtail, Green plant response rating: 75
[11]; 125 g ai/ha, preemergence
  Foxtail, Green plant response rating: 95
[11]; Preemergence, 31 g ai/ha
  Plant response rating, Foxtail, Green: 75
[12]; 62 g ai/ha, Preemergence
  Groundsel plant response rating: 0
[12]; 125 g ai/ha, preemergence
  Groundsel plant response rating: 50
[12]; Preemergence, 31 g ai/ha
  Plant response rating, Groundsel: 0
[13]; 16 g ai/ha, preemergence
  Plant response rating, Sandbur: 65
[13]; 125 g ai/ha, preemergence
  Sandbur plant response rating: 100
[13]; Preemergence, 62 g ai/ha
  Plant response rating, Sandbur: 95
[13]; Preemergence, 31 g ai/ha
  Plant response rating, Sandbur: 80
[14]; 16 g ai/ha, preemergence
  Plant response rating, Johnsongrass: 50
[14]; 62 g ai/ha, Preemergence
  Johnsongrass plant response rating: 90
[14]; 125 g ai/ha, preemergence
  Johnsongrass plant response rating: 98
[14]; Preemergence, 31 g ai/ha
  Plant response rating, Johnsongrass: 75
[15]; 16 g ai/ha, preemergence
  Plant response rating, Ragweed: 0
[15]; 125 g ai/ha, preemergence
  Ragweed plant response rating: 90
[15]; Preemergence, 31 g ai/ha
  Plant response rating, Ragweed: 0
